Legend:
[1] = tested on: serum cholesterol; experiment: Serum cholesterol lowering activity in hamsters fed on a high-cholesterol diet; assay type: in vivo, Male Syrian hamsters; settings: 30 mg per kg of body weight per day for 4 days, 24 hours after the last administration
Protocol: Serum cholesterol lowering activity in hamsters fed on a high-cholesterol diet
Male Syrian hamsters of 10-week-old were divided into three groups. The first group (normal group) was fed an ordinary diet for 4 days. The second group (control group) was fed a high cholesterol diet (containing 0.5% cholesterol and 8.0% coconut oil for 4 days. The third group (treated group) was fed a high cholesterol diet and was treated with a compound for 4 days. Simultaneously with the beginning of the above feeding, the compound suspended in a 0.5% carboxymethyl cellulose solution was administered to the treated group, in a dose of 30 mg (in terms of the compound) per kg of body weight per day for 4 days. A 0.5% carboxymethyl cellulose solution was also administered to the normal group and the control group in the same manner as above. After 24 hours of the last administration, blood was collected and the cholesterol concentration in serum was measured by an enzymatic method. The reduction rate of the total serum cholesterol concentration was calculated from values obtained for the three groups by the following equation. [formula] wherein A: the serum cholesterol concentration of the control group.
B: the serum cholesterol concentration of the compound treated group.
C: the serum cholesterol concentration of the normal group.

[2] = molecular target: T1, acyl-CoA:cholesterol O-acyltransferase (ACAT) (Oryctolagus cuniculus, UniProt G1SFD9); experiment: Inhibitory activity on acyl-CoA:cholesterol O-acyltransferase (ACAT), intestinal mucosa microsomal fraction, [1-14C]oleyl-CoA incorporation into cholesterol esters; assay type: biochemical, white rabbit; settings: read-out: Inhibition rate %
T1 construct: The intestinal mucosa of a white rabbit was homogenized and microsomal fraction was obtained by stepwise centrifugation; from tissue; host or cells: intestinal mucosa of white rabbit, microsomal fraction
T1 sequence (G1SFD9 1-524): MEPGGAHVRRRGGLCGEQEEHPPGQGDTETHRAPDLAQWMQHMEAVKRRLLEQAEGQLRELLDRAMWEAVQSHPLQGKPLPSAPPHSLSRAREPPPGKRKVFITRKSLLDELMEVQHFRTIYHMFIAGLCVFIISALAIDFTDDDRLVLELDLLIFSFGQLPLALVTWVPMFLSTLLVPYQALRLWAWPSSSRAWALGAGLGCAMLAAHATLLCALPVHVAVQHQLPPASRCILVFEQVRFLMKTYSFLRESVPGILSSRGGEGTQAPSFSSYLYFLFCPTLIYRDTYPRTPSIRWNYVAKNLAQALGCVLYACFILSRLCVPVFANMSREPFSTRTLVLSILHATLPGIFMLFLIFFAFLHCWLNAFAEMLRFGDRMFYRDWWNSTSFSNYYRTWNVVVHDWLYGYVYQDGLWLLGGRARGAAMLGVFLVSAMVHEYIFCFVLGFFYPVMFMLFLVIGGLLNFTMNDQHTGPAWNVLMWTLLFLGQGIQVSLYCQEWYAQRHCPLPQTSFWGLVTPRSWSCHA
Protocol: Inhibitory activity on acyl-CoA:cholesterol Oacyltransferase (ACAT)
The enzyme used in the test was prepared according to the method of Heider et al. [J. Lipid, Res. 24, 1127 (1983)]. The intestinal mucosa of a white rabbit was homogenized and microsomal fraction was obtained by stepwise centrifugation. The microsomal fraction was suspended in 0,154M phosphate buffer (pH 0 7.4) and stored at -80° C. until use.
ACAT activity was determined by a modification of the method of Helgerud et al. [J. Lipid Res. 22, 271 (1981)] by measuring radioactivity incorporated into cholesterol esters from [1-14C]oleyl-CoA, as an indication. As to the ACAT-inhibiting activity of each compound to be tested, the inhibition rate was calculated by the following equation.

SMILES | inhibition at 0.01 µM [2] [%] | inhibition at 1 µM [2] [%] | Reduction rate (%) of the total serum cholesterol concentration [1] [%]
CCc1cccc(CC)c1NC(=O)Nc1sc2cc3c(cc2c1-c1ccccc1C)CCC3 [Compound 109, N-(2,6-Diethylphenyl)-N'-[3-(2-methylphenyl)-6,7-dihydro-5H-cyclopenta[f][1]benzothiophen-2-yl]urea] | 80.1 | – | 71.5
O=C(Nc1sc2cc3c(cc2c1-c1ccccc1Cl)CCC3)Nc1c(Cl)cccc1Cl [Compound 95, N-[3-(2-Chlorophenyl)-6,7-dihydro-5H-cyclopenta[f][1]benzothiophen-2-yl]-N'-(2,6-dichlorophenyl)urea] | 66.4 | – | –
CCc1cccc(CC)c1NC(=O)Nc1sc2ccc(C)cc2c1-c1ccccc1Cl [Compound 72, N-[3-(2-Chlorophenyl)-5-methyl-1-benzothiophen-2-yl]-N'-(2,6-diethylphenyl)urea] | 60.6 | – | –
CCc1cccc(CC)c1NC(=O)Nc1sc2cc3c(cc2c1-c1ccccc1C(F)(F)F)CCC3 [Compound 113, N-(2,6-Diethylphenyl)-N'-[3-(2-trifluoromethylphenyl)-6,7-dihydro-5H-cyclopenta[f][1]-benzothiophen-2-yl]urea] | 43.5 | – | –
Cc1cc(C)c2oc(NC(=O)Nc3ccc(F)cc3F)c(-c3ccccc3Cl)c2c1 [Compound 46, N-[3-(2-Chlorophenyl)-5,7-dimethylbenzofuran-2-yl]-N'-(2,4-difluorophenyl)urea] | – | 92.7 | –
CCc1cccc(CC)c1NC(=O)Nc1sc2cc3c(cc2c1-c1ccccc1Cl)CCCC3 [Compound 96, N-[3-(2-Chlorophenyl)-5,6,7,8-tetrahydronaphthono[2,3-b]thiophen-2-yl]-N'-(2,6-diethylphenyl)urea] | 80.7 | – | –
Cc1ccccc1-c1c(NC(=O)Nc2ccc(F)cc2F)sc2cc3c(cc12)CCCC3 [Compound 119, N-(2,4-Difluorophenyl)-N'-[3-(2-methylphenyl)5,6,7,8-tetrahydronaphtho [2,3-b]thiophen-2-yl]urea] | 79.5 | – | –
Cc1cc(C)c2c(c1)c(-c1ccccc1Cl)c(NC(=O)Nc1ccc(F)cc1F)n2C [Compound 124, N-[3-(2-Chlorophenyl)-5,7-dimethyl-1-methylindole-2-yl]-N'-(2,4-difluorophenyl)urea] | – | 81.7 | –
Cc1cc(C)c2oc(NC(=O)Nc3c(F)cc(F)cc3F)c(-c3ccccc3Cl)c2c1 [Compound 48, N-[3-(2-Chlorophenyl)-5,7-dimethylbenzofuran-2-yl]-N'-(2,4,6-trifluorophenyl)urea] | 6.8 | 95.6 | –
Cc1cccc(N(C)C)c1NC(=O)Nc1sc2cc3c(cc2c1-c1ccccc1Cl)CCC3 [Compound 91] | 65 | – | –
CCc1cccc(CC)c1NC(=O)Nc1sc2ccc(Cl)cc2c1-c1ccccc1Cl [Compound 65, N-[5-Chloro-3-(2-chlorophenyl)-1-benzothiophen-2-yl]-N'-(2,6-diethylphenyl)urea] | 56.5 | 99.1 | –
CCc1cccc(CC)c1NC(=O)Nc1sc2cc(OC)c(OC)cc2c1-c1ccccc1Cl [Compound 102, N-[3-(2-Chlorophenyl)-5,6-dimethoxy-1-benzothiophen-2-yl]-N'-(2,6-diethylphenyl)urea] | 43.3 | – | –
O=C(Nc1sc2cc3c(cc2c1-c1ccccc1Cl)CCC3)Nc1c(F)cccc1F [Compound 93, N-[3-(2-Chlorophenyl)-6,7-dihydro-5H-cyclopenta[f][1]benzothiophen-2-yl]-N'-(2,6-difluorophenyl)urea] | 69.7 | – | –
Cc1ccc(S(=O)(=O)n2c(NC(=O)Nc3ccc(F)cc3F)c(-c3ccccc3Cl)c3cc(C)cc(C)c32)cc1 [Compound 122, N-[3-(2-Chlorophenyl)-5,7-dimethyl-1-(p-toluenesulfonyl)indole-2-yl]-N'-(2,4-difluorophenyl)urea] | – | 75.4 | –
Cc1cc2sc(NC(=O)Nc3ccc(F)cc3F)c(-c3ccccc3Cl)c2cc1C [Compound 84, N-[3-(2-Chlorophenyl)-5,6-dimethyl-1-benzothiophen-2-yl]-N'-(2,4-difluorophenyl)urea] | 78.6 | – | –

Second part, led by results:

inhibition at 0.01 µM [2] [%] | inhibition at 1 µM [2] [%] | SMILES | Reduction rate (%) of the total serum cholesterol concentration [1] [%]
74.7 | 99.5 | CCc1cccc(CC)c1NC(=O)Nc1oc2cc(C)c(C)cc2c1-c1ccccc1Cl [Compound 37, N-[3-(2-Chlorophenyl)-5,6-dimethylbenzofuran-2-yl]-N'-(2,6-diethylphenyl)urea] | 59.3
70.9 | 99.4 | Cc1cc2oc(NC(=O)Nc3c(C)cccc3C(C)C)c(-c3ccccc3Cl)c2cc1C [Compound 39] | –
84.9 | 99.4 | CC(C)c1cccc(C(C)C)c1NC(=O)Nc1oc2ccc(Cl)cc2c1-c1ccccc1Cl [Compound 13, N-[5-Chloro-3-(2-chlorophenyl)benzofuran-2-yl]-N'-(2,6-diisopropylphenyl)urea] | –
71 | – | CCc1cccc(CC)c1NC(=O)Nc1sc2ccc(C(C)C)cc2c1-c1ccccc1Cl [Compound 76, N-[3-(2-Chlorophenyl)-5-isopropyl-1-benzothiophen-2-yl]-N'-(2,6-diethylphenyl)urea] | –
41.2 | – | CCc1ccc2oc(NC(=O)Nc3ccc(F)cc3F)c(-c3ccccc3Cl)c2c1 [Compound 26, N-[-3-(2-Chlorophenyl)-5-ethylbenzofuran-2-yl]-N'-(2,4-difluorophenyl)urea] | –
51.7 | – | CC(C)c1ccc2sc(NC(=O)Nc3c(C(C)C)cccc3C(C)C)c(-c3ccccc3Cl)c2c1 [Compound 77, N-[3-(2-chlorophenyl)-5-isopropyl-1-benzothiophen-2-yl]-N'-(2,6-diisopropylphenyl)urea] | –
18.4 | – | CC(C)c1cccc(C(C)C)c1NC(=O)Nc1sc2ccc([N+](=O)[O-])cc2c1-c1ccc(Cl)cc1Cl [Compound 100, N-[3-(2,4-Dichlorophenyl)-5-nitro-1-benzothiophen-2-yl]-N'-(2,6-diisopropylphenyl)urea] | –
49.8 | – | CCc1cccc(CC)c1NC(=O)Nc1oc2ccc(F)cc2c1-c1ccccc1Cl [Compound 1] | –
91.6 | – | CCc1cccc(CC)c1NC(=O)Nc1oc2ccc(Cl)cc2c1-c1ccccc1SC [Compound 62, N-[5-Chloro-3-(2-methylthiophenyl)benzofuran-2-yl]-N'-(2,6-diethylphenyl)urea] | –
72.1 | – | CSc1ccccc1-c1c(NC(=O)Nc2c(C(C)C)cccc2C(C)C)oc2ccc(Cl)cc12 [Compound 63, N-[5-Chloro-3-(2-methylthiophenyl)benzofuran-2-yl]-N'-(2,6-diisopropylphenyl)urea] | –
58.4 | – | COc1ccc2oc(NC(=O)Nc3c(C(C)C)cccc3C(C)C)c(-c3ccccc3Cl)c2c1 [Compound 30, N-[3-(2-Chlorophenyl)-5-methoxybenzofuran-2-yl]-N'-(2,6-diisopropylphenyl)urea] | –
65.6 | – | Cc1ccccc1-c1c(NC(=O)Nc2c(C(C)C)cccc2C(C)C)oc2ccc(Cl)cc12 [Compound 61, N-[5-Chloro-3-(2-methylphenyl)benzofuran-2-yl]-N'-(2,6-diisopropylphenyl)urea] | –
24.9 | 97.4 | COc1ccccc1NC(=O)Nc1oc2ccc(Cl)cc2c1-c1ccccc1Cl [Compound 8, N-[5-Chloro-3-(2-chlorophenyl)benzofuran-2-yl]-N'-(2-methoxyphenyl)urea] | –
58.3 | – | CC(C)c1cccc(C(C)C)c1NC(=O)Nc1oc2ccc(F)cc2c1-c1ccccc1Cl [Compound 2, N-[3-(2-Chlorophenyl)-5-fluorobenzofuran-2-yl]-N'-(2,6-diisopropylphenyl)urea] | –
75.4 | – | Cc1cccc(C(C)C)c1NC(=O)Nc1sc2cc3c(cc2c1-c1ccccc1Cl)CCC3 [Compound 90, N-[3-(2-Chlorophenyl)-6,7-dihydro-5H-cyclopenta[f][1]benzothiophen-2-yl]-N'-(2-isopropyl-6-methylphenyl)urea] | –
